Reference: US7132553B2, “Product comprising an inhibitor of the transduction of heterotrimeric G protein signals combined with an anti-hypertensive agent for therapeutic use in the treatment of arterial hypertension” (Societe de Conseils de Recherches et d'Applications …, priority 2000, dated 2006)

Legend:
[1] = tested on: spontaneously hypertensive rats (SHR); assay: Heart rate in anaesthetized spontaneously hypertensive rats (carotid catheter); format: in vivo; parameters: Frequency difference (Δ) (reduction in heart rate): unit not given here; settings: SHR rat; for reduction in heart rate, maximum difference (delta): baseline 328 to 371 beats per minute (FIG. 2); for Frequency difference (Δ) (reduction in heart rate): single product, intravenous, monitored 20 minutes
Experimental: (§1) 13/14 week old male SHR rats (Charles River France) are anaesthetized using pentobarbital (Sanofi) (60 mg/kg/IP). […] After a stabilization period of 10 minutes, the product or two products simultaneously are administered and their effects are monitored for 20 minutes.
(§2) For administration purposes, 7-(2-amino-1-oxo-3-thiopropyl)-8-(cyclohexylmethyl)-2-phenyl-5,6,7,8-tetrahydro-imidazo[1,2a]pyrazine, verapamil (Sigma, USA) and captopril (Sigma, USA) can be dissolved in an aqueous solution of NaCl at 0.9%.

[2] = tested on: spontaneously hypertensive rats (SHR); assay: Arterial pressure in anaesthetized spontaneously hypertensive rats (carotid catheter); format: in vivo; settings: SHR rat, single intravenous injection, verapamil 0.1 or 0.3 mg/kg, captopril 1 mg/kg; for time of return of arterial pressure to initial values after injection: G protein inhibitor 1 mg/kg; for effect on arterial pressure (in words): G protein inhibitor 1 mg/kg (FIG. 1)
Experimental: as §1, §2

SMILES: COc1ccc(CCN(C)CCCC(C#N)(c2ccc(OC)c(OC)c2)C(C)C)cc1OC (centres unmarked) [Verapamil, verapamil]
- reduction in heart rate, maximum difference (delta) ([1]; 0.1 mg/kg intravenous): 32
- reduction in heart rate, maximum difference (delta) ([1]; 0.3 mg/kg intravenous): 56
- Frequency difference (Δ) (reduction in heart rate) ([1]; dose 0.1 mg/kg): 28
- Frequency difference (Δ) (reduction in heart rate) ([1]; dose 0.3 mg/kg): 56
- time of return of arterial pressure to initial values after injection [2]: 20 min
- effect on arterial pressure (in words) [2]: immediate reduction

SMILES: NC(CS)C(=O)N1CCn2cc(-c3ccccc3)nc2C1CC1CCCCC1 (centres unmarked) [Compound 2, 7-(2-amino-1-oxo-3-thiopropyl)-8-(cyclohexylmethyl)-2-phenyl-5,6,7,8-tetrahydroimidazo[1,2a]pyrazine]
- reduction in heart rate, maximum difference (delta) ([1]; 1 mg/kg intravenous): 44
- Frequency difference (Δ) (reduction in heart rate) ([1]; dose 1 mg/kg): 44
- time of return of arterial pressure to initial values after injection [2]: 20 min
- effect on arterial pressure (in words) [2]: immediate reduction

SMILES: C[C@H](CS)C(=O)N1CCC[C@H]1C(=O)O [Captopril, captopril]
- Frequency difference (Δ) (reduction in heart rate) ([1]; dose 1 mg/kg): 1
- change of heart rate (in words) ([1]; single products, single intravenous injection (FIG. 2)): does not change the heart rate at all
- time of return of arterial pressure to initial values after injection [2]: 20 min
- effect on arterial pressure (in words) [2]: immediate reduction
